The source made the active and inactive calls. How the calls were made is not given here.
Biological target: Serine/threonine-protein kinase mTOR (Homo sapiens) (UniProt P42345)
Test: binders of mTOR FRB domain, biophysical, NMR (AID 1648)
Conditions: NMR binding to FRB domain, chemical shift

Chain of Serine/threonine-protein kinase mTOR (Homo sapiens) (P42345 2015-2114): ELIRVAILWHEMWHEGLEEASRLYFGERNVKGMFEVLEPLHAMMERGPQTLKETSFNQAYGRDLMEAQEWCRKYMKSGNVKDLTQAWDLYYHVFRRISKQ

Compound | Kd
O=C(/C=C1\SC(=O)NC1=O)NCc1ccccc1 | > 4 mM (inactive)
O=C(O)C1CN(Cc2ccccc2)CCO1 (stereo not given) | > 4 mM (inactive)
COc1ccccc1NC(=O)/C=N/O | > 4 mM (inactive)
Cc1c(C(=O)NC2=NCCS2)oc2ccccc12 | > 4 mM (inactive)
Cc1cc(N2CCN(C)CC2)ncn1 | > 4 mM (inactive)
Cc1onc(-c2ccccc2)c1CN | > 4 mM (inactive)
COc1cc(C)c2c(c1C=O)Oc1c(c(C)c(O)c3c1C(O)OC3=O)OC2=O (stereo not given) | > 4 mM (inactive)
O=C(/C=C/c1ccccc1)c1ccc(O[C@@H]2O[C@H](CO)[C@@H](O)[C@H](O)[C@H]2O)cc1O | > 4 mM (inactive)
CCOC(=O)CC1Sc2ccccc2NC1=O (stereo not given) | > 4 mM (inactive)
O=C(OCc1c(Cl)cccc1Cl)c1cnccn1 | > 4 mM (inactive)
CC(=O)N1CCn2c3c(c(=O)c4cc(C)ccc42)CCC31 (stereo not given) | > 4 mM (inactive)
Cc1nnc(SCC(=O)NCc2ccccc2)[nH]c1=O | > 4 mM (inactive)
CC1(C)Cc2cccc(C(=O)O)c2O1 | > 4 mM (inactive)
N#Cc1cn(CC(=O)N2CCCC2)c2ccccc12 | > 4 mM (inactive)
Nc1cc(-c2ccco2)[nH]n1 | > 4 mM (inactive)
Cn1c(=O)n(C)c2nc([N+](=O)[O-])c(Cl)cc21 | > 4 mM (inactive)
Cc1cc(C(=O)N2CCN(c3ncccn3)CC2)c(C)o1 | > 4 mM (inactive)
Nc1cc(C(F)(F)F)ccc1N1CCOCC1 | > 4 mM (inactive)
Nc1[nH]c(=S)ncc1S(=O)(=O)c1ccccc1 | > 4 mM (inactive)
CCOC(=O)c1c(C)[nH]c2ccc(O)cc12 | > 4 mM (inactive)
CC(=O)c1sc2nc(N)nn2c1C | > 4 mM (inactive)
O=C(O)c1ccc(Nc2nncc(=O)[nH]2)cc1 | > 4 mM (inactive)
Fc1ccc(Br)cc1/C=N/n1cnnc1 | > 4 mM (inactive)

Compound | Kd
CCOC(=O)c1cc(C)n(-n2cnnc2)c1C | > 4 mM (inactive)
CC(=O)Nc1ccc(S(=O)(=O)N2CCN=C2C)cc1 | > 4 mM (inactive)
CC(=O)c1ccc2c(c1)OCCO2 | > 4 mM (inactive)
Cc1c(C(=O)OC(C)C)[nH]c2c1C(=O)CCC2 | > 4 mM (inactive)
O=C(CN1CCOCC1)Nc1nccs1 | > 4 mM (inactive)
CC(=O)Oc1ccc(/C=C/c2cc(OC(C)=O)cc(OC(C)=O)c2)cc1 | > 4 mM (inactive)
Cc1[nH]c2ccccc2c1Cc1n[nH]c(=S)n1C | > 4 mM (inactive)
CCOc1ccccc1C(=O)NC1=NCCS1 | > 4 mM (inactive)
C=C1C(=O)OC2CC1C(OC(C)=O)C/C(C)=C/CC/C(C)=C/CC[C@]2(C)O (stereo not given in full) | > 4 mM (inactive)
CCOC(=O)c1ccc2c(c1)nnn2C | > 4 mM (inactive)
COc1cc2c(cc1OC)[C@@H]1C(=O)c3ccc(O)c(CC=C(C)C)c3O[C@@H]1CO2 | > 4 mM (inactive)
Cc1ccc(C(=O)N2CCC(C(N)=O)CC2)cc1C | > 4 mM (inactive)
O=C1COc2ccc(C(=O)c3ccccc3)cc2CN1 | > 4 mM (inactive)
NC(=O)C1CCN(C(=O)Nc2ccccc2)CC1 | > 4 mM (inactive)
O=C(c1ccco1)N1CCCN(C(=O)c2ccco2)CC1 | > 4 mM (inactive)
CC(C)Nc1ncnc2c1nnn2C | > 4 mM (inactive)
O=C1NC(=O)C(C(C[N+](=O)[O-])c2ccc(O)cc2)C(=O)N1 (stereo not given) | > 4 mM (inactive)
O=C(NCc1ccccc1)c1ccc[n+]([O-])c1 | > 4 mM (inactive)
Cc1nc(NC(=O)c2cccnc2)ccc1Br | > 4 mM (inactive)
CN(C)c1ccc(C2CC(=O)CC(=O)C2)cc1 | > 4 mM (inactive)
Oc1ccc2c(c1)OCO2 | > 4 mM (inactive)
NC(=O)CSCc1ccc(Br)cc1 | > 4 mM (inactive)
O=C(NN1CCOCC1)c1ccccc1F | > 4 mM (inactive)

Compound | Kd
Cc1cccc(-n2c(N)cc(=O)[nH]c2=S)c1C | > 4 mM (inactive)
Nc1csc(C(=O)O)c1 | > 4 mM (inactive)
O=C(c1ccc(F)cc1)C1CCNCC1 | > 4 mM (inactive)
Cc1cc(N2C(=O)CCC2=O)n(-c2ccccc2)n1 | > 4 mM (inactive)
O=c1c(-c2cccs2)[n+]([O-])c2ccccc2n1O | > 4 mM (inactive)
Cc1ccc(C)n1CCN1CCNCC1 | > 4 mM (inactive)
O=C1CSC(c2ccccc2)N1 (stereo not given) | > 4 mM (inactive)
O=C(Nc1nnc(-c2ccco2)o1)c1ccc([N+](=O)[O-])o1 | > 4 mM (inactive)
CC(CCC(=O)O)[C@H]1CCC2C3C[C@H](O)[C@@H]4C[C@H](O)CC[C@]4(C)C3CC[C@@]21C (stereo not given in full) | > 4 mM (inactive)
CC1=C(/C=C/C(C)=C/C=C/C(C)=C/C=C/C=C(C)/C=C/C=C(C)/C=C/C(=O)[C@]2(C)C[C@@H](O)CC2(C)C)C(C)(C)C[C@H](O)C1 | > 4 mM (inactive)
CN(C(N)=O)C1(C)CCS(=O)(=O)C1 (stereo not given) | > 4 mM (inactive)
Cc1ccc(SCc2cc(=O)n3[nH]c(C)nc3n2)cc1 | > 4 mM (inactive)
Cc1cccc(-c2nnc(-c3ccc(N)cc3)o2)c1 | > 4 mM (inactive)
CSc1n[nH]c(NCc2ccccc2)n1 | > 4 mM (inactive)
Cc1nnsc1C(=O)Nc1ccccn1 | > 4 mM (inactive)
O=C1CNCc2[nH]c3ccccc3c2N1c1ccccc1 | > 4 mM (inactive)
NC12CC3CC(C1)CC(CC(=O)O)(C3)C2 | > 4 mM (inactive)
CC1(C)C(=O)C=C[C@@]2(C)C1C[C@@H](O)[C@]1(C)C2CC[C@@]2(C)[C@H](c3ccoc3)OC(=O)[C@H]3O[C@]321 (stereo not given in full) | > 4 mM (inactive)
O=c1ccc2nc3ccccc3c(=O)n2[nH]1 | > 4 mM (inactive)
CCSc1nc(N)c(NC(=O)c2ccco2)c(=O)[nH]1 | > 4 mM (inactive)
COc1cc2ccc(=O)oc2c2ccoc12 | > 4 mM (inactive)
COC(=O)c1c(OC)cc2c(c1C)Oc1c(Cl)c(O)c(Cl)c(C)c1C(=O)O2 | > 4 mM (inactive)
C[C@@H]1CC[C@@]2(OC1)O[C@H]1CC3C4CC[C@H]5C[C@@H](O)CC[C@]5(C)C4CC[C@]3(C)[C@H]1[C@@H]2C (stereo not given in full) | > 4 mM (inactive)

Compound | Kd
CN1CCN(C(=S)c2ccc(N(C)C)cc2)CC1 | > 4 mM (inactive)
COC(=O)[C@]1(C)CC[C@]2(C)CC[C@]3(C)C4=CC=C5C(=CC(=O)C(O)=C5C)[C@]4(C)CC[C@@]3(C)[C@@H]2C1 | > 4 mM (inactive)
O=C(O)c1ccc(NCc2cccnc2)cc1 | > 4 mM (inactive)
O=S1(=O)CCC(NCc2ccccc2)C1 (stereo not given) | > 4 mM (inactive)
NC(=O)CSc1nnc2ccc(-c3ccco3)nn12 | > 4 mM (inactive)
Cc1cc2c(=O)n(C)c(SCC(N)=O)nc2s1 | > 4 mM (inactive)
COc1cc(OC)c(OC)cc1C=O | > 4 mM (inactive)
CN(C)C(=O)CSc1nc2ccccc2c(=O)[nH]1 | > 4 mM (inactive)
O=c1c(O)c(-c2ccccc2)oc2ccccc12 | > 4 mM (inactive)
O=C(O[C@@H]1Cc2c(O)cc(O)cc2O[C@@H]1c1ccc(O)c(O)c1)c1cc(O)c(O)c(O)c1 | > 4 mM (inactive)
Cc1ccccc1N1CCN(C(=O)C2CCCCC2)CC1 | > 4 mM (inactive)
C=C1C[C@]23C[C@@]1(O)CC[C@H]2[C@@]12C=C[C@H](O)C(C)(C(=O)O1)[C@H]2[C@@H]3C(=O)O | > 4 mM (inactive)
CC(=O)Nc1ccc(NC(=O)c2ccnn2C)cc1 | > 4 mM (inactive)
Cc1ccc(CN2C3=NC(=O)CN3c3ccccc32)cc1 | > 4 mM (inactive)
CCc1nnc(NC(C)=O)s1 | > 4 mM (inactive)
Cc1ccc(C)c(C(=O)n2cnnc2N)c1 | > 4 mM (inactive)
Nc1ccccc1-c1nc2ccccc2[nH]1 | > 4 mM (inactive)
COc1c2c(c(CC=C(C)C)c3oc(=O)c(-c4ccc(O)cc4)c(O)c13)OC(C)(C)C=C2 | > 4 mM (inactive)
COc1ccc2c(c1)c1n[nH]c(=S)nc1n2C | > 4 mM (inactive)
O=S(=O)(c1cccc(Cl)c1)N1CCCC1 | > 4 mM (inactive)
Cc1cc(C)n2nc(SCC(=O)c3ccccc3)nc2n1 | > 4 mM (inactive)
Cn1cnc2ccc([N+](=O)[O-])cc2c1=O | > 4 mM (inactive)
NCc1ccccc1N1CCCCC1 | > 4 mM (inactive)

Compound | Kd
CC1CCC(N2CCN(c3ncccn3)CC2)CC1 (stereo not given) | > 4 mM (inactive)
COc1ccc(-c2c(C)n([O-])c(C)c(C)[n+]2=O)cc1 | > 4 mM (inactive)
c1ccc(-c2csc3ncn4nnnc4c23)cc1 | > 4 mM (inactive)
COc1ccccc1-c1noc(-c2ccco2)n1 | > 4 mM (inactive)
OC(c1ccccc1)c1ccccn1 (stereo not given) | > 4 mM (inactive)
CCCn1cnc2sc(C(N)=O)c(C)c2c1=O | > 4 mM (inactive)
COc1ccccc1C(=O)NC1CCN(C)CC1 | > 4 mM (inactive)
CC(=O)c1cc(-c2nc3ccccc3n2C)n(C)c1 | > 4 mM (inactive)
O=C(c1cnsn1)N1CCN(c2ccccn2)CC1 | > 4 mM (inactive)
O=C(Nc1nccs1)c1cccnc1 | > 4 mM (inactive)
O=C(O)CC1NCCNC1=O (stereo not given) | > 4 mM (inactive)
Cc1cc(C(=O)O)n[nH]1 | > 4 mM (inactive)
O=C(O)c1cccc2c1OCCCO2 | > 4 mM (inactive)
CC(=O)Oc1c(C)c(C)c2c(c1C)CCC(C)(CCCC(C)CCCC(C)CCCC(C)C)O2 (stereo not given) | > 4 mM (inactive)
NC(=O)CSc1ccc(-c2ccccc2)nn1 | > 4 mM (inactive)
O=CN1CCN(C(=O)c2ccccc2Cl)CC1 | > 4 mM (inactive)
COc1ccc(O)c(-c2cn[nH]c2-c2cccs2)c1 | > 4 mM (inactive)
COc1cccc(/C=C2/SC(N)=NC2=O)c1 | > 4 mM (inactive)
CN1C(=O)c2ccc(N3CCCC3)cc2C1=O | > 4 mM (inactive)
CCNC(=S)N1CCC(C(N)=O)CC1 | > 4 mM (inactive)
Nc1nc(CSc2ncn(-c3ccccc3)n2)cs1 | > 4 mM (inactive)
NCc1ccc2c(c1)OCO2 | > 4 mM (inactive)
CSc1ccc(C(=S)N2CCN(C)CC2)cc1 | > 4 mM (inactive)

From PubChem BioAssay AID1648 (Sanford-Burnham Center for Chemical Genomics, 2009)
